From ChEMBL document CHEMBL1138399, “Novel poly(ADP-ribose) polymerase-1 inhibitors” (Bioorg Med Chem Lett, 2007)

How the values were obtained:
PC-12 [1] = assay: Recovery of NAD+ in hydrogen peroxide treated PC12 cells at 1 uM relative to control; assay type: functional, Rattus norvegicus
PC-12 [2] = assay: Maximum recovery of NAD+ in hydrogen peroxide treated PC12 cells at 30 uM relative to control; assay type: functional, Rattus norvegicus
PC-12 [3] = assay: Maximum recovery of NAD+ in hydrogen peroxide treated PC12 cells at 10 uM relative to control; assay type: functional, Rattus norvegicus
PC-12 [4] = assay: Maximum recovery of NAD+ in hydrogen peroxide treated PC12 cells at 3 uM relative to control; assay type: functional, Rattus norvegicus
[5] = biological target: Poly [ADP-ribose] polymerase 1 (Homo sapiens, UniProt P09874); assay: Inhibition of human recombinant PARP1 in U251MG cells by CometAssay; assay type: cell-based, U-251
Poly [ADP-ribose] polymerase 1, sequence (P09874 whole entry): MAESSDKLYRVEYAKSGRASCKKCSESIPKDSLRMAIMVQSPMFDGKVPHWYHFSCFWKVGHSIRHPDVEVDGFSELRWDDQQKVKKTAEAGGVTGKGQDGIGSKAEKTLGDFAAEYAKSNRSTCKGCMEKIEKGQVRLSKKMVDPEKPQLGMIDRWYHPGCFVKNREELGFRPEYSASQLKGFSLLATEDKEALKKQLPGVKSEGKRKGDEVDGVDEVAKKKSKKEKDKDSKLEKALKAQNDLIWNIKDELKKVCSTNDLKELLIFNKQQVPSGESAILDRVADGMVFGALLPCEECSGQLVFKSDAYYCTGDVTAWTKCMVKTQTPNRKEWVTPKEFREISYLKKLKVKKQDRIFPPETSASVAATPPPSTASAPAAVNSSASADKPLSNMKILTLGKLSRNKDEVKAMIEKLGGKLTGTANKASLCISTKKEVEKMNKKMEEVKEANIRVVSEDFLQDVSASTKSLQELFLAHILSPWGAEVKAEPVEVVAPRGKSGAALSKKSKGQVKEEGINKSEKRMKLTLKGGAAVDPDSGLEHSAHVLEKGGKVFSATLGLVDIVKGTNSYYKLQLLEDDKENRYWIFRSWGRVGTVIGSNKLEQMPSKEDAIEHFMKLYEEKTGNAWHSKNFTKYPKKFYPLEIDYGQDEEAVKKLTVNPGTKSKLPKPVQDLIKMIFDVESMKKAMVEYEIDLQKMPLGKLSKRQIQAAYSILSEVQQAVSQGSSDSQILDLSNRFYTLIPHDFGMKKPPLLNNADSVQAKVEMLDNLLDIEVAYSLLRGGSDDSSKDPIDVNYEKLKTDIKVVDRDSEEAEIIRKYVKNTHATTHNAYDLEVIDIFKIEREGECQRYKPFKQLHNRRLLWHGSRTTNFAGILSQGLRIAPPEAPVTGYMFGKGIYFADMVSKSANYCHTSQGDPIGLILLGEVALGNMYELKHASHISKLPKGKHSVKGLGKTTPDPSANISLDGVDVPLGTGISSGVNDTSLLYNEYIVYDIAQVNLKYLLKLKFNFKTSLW

Row | Structure (SMILES) | Activity (PC-12 [1]) [%] | Activity (PC-12 [2]) [%] | Activity (PC-12 [3]) [%] | Activity (PC-12 [4]) [%] | IC50 [5] [µM]
1 | O=C1NC(=O)c2c1c1c(c3[nH]c4ccccc4c23)CCC1 | 30 |  |  |  | 
2 | CC(C)(C)C(=O)OCc1nc(-c2ccc3[nH]c4c5c(c6c(c4c3c2)C(=O)NC6=O)CCC5)cs1 | 14 | 27 |  |  | 
3 | CCNC(=O)NCc1nc(-c2ccc3[nH]c4c5c(c6c(c4c3c2)C(=O)NC6=O)CCC5)cs1 | 15 |  | 22 |  | 
4 | Cc1sc(N)nc1-c1ccc2[nH]c3c4c(c5c(c3c2c1)C(=O)NC5=O)CCC4 | 37 |  |  | 38 | 
5 | CNc1nc(-c2ccc3[nH]c4c5c(c6c(c4c3c2)C(=O)NC6=O)CCC5)cs1 | 22 | 56 |  |  | 
6 | O=C1NC(=O)c2c1c1c(c3[nH]c4ccc(-c5csc(-c6ccno6)n5)cc4c23)CCC1 | 11 | 27 |  |  | 0.066
7 | O=C1NC(=O)c2c1c1c(c3[nH]c4ccc(-c5csc(CNC6O[C@H](CO)[C@@H](O)[C@H](O)[C@H]6O)n5)cc4c23)CCC1 (some centres not stated) | 0 | 0 |  |  | 0.017
8 | CC(=O)Nc1nc(-c2ccc3[nH]c4c5c(c6c(c4c3c2)C(=O)NC6=O)CCC5)cs1 | 10 | 34 |  |  | 
9 | O=C(CBr)c1ccc2[nH]c3c4c(c5c(c3c2c1)C(=O)NC5=O)CCC4 | 32 | 49 |  |  | 
10 | CC(C)C(=O)NCc1nc(-c2ccc3[nH]c4c5c(c6c(c4c3c2)C(=O)NC6=O)CCC5)cs1 | 10 | 33 |  |  | 
11 | Cc1nc(-c2ccc3[nH]c4c5c(c6c(c4c3c2)C(=O)NC6=O)CCC5)cs1 | 19 | 63 |  |  | 
12 | Cc1nc(-c2ccc3[nH]c4c5c(c6c(c4c3c2)C(=O)NC6=O)CCC5)c(Br)s1 | 16 | 57 |  |  | 
13 | CC(C)(C)OC(=O)NC(CCCc1nc(-c2ccc3[nH]c4c5c(c6c(c4c3c2)C(=O)NC6=O)CCC5)cs1)C(=O)OC(C)(C)C (configuration not stated) | 17 |  | 27 |  | 0.046
14 | CC(=O)NCc1nc(-c2ccc3[nH]c4c5c(c6c(c4c3c2)C(=O)NC6=O)CCC5)cs1 | 20 | 51 |  |  | 
15 | CC(C)CC(=O)NCc1nc(-c2ccc3[nH]c4c5c(c6c(c4c3c2)C(=O)NC6=O)CCC5)cs1 | 13 | 30 |  |  | 
16 | O=C1NC(=O)c2c1c1c(c3[nH]c4ccc(-c5csc(CNC(=O)C6CC6)n5)cc4c23)CCC1 | 11 | 16 |  |  | 

Row | Structure (SMILES) | Activity (PC-12 [1]) [%] | Activity (PC-12 [2]) [%] | Activity (PC-12 [3]) [%] | Activity (PC-12 [4]) [%] | IC50 [5] [µM]
17 | NC(CCCc1nc(-c2ccc3[nH]c4c5c(c6c(c4c3c2)C(=O)NC6=O)CCC5)cs1)C(=O)O.O=C(O)C(F)(F)F (configuration not stated) | 7 | 47 |  |  | 0.022
18 | CCC(=O)NCc1nc(-c2ccc3[nH]c4c5c(c6c(c4c3c2)C(=O)NC6=O)CCC5)cs1 | 16 | 20 |  |  | 
19 | O=C1NC(=O)c2c1c1c(c3[nH]c4ccc(-c5csc(CNC(=O)C6CCCC6)n5)cc4c23)CCC1 | 21 | 29 |  |  | 
20 | NCc1ccc2[nH]c3c4c(c5c(c3c2c1)C(=O)NC5=O)CCC4 | 84 | 100 |  |  | 0.018
21 | CS(=O)(=O)Cc1nc(-c2ccc3[nH]c4c5c(c6c(c4c3c2)C(=O)NC6=O)CCC5)cs1 | 16 | 62 |  |  | 
22 | CC(C)(C)S(=O)(=O)Cc1nc(-c2ccc3[nH]c4c5c(c6c(c4c3c2)C(=O)NC6=O)CCC5)cs1 | 33 | 51 |  |  | 
23 | O=C(NCc1nc(-c2ccc3[nH]c4c5c(c6c(c4c3c2)C(=O)NC6=O)CCC5)cs1)OCc1ccccc1 | 17 | 46 |  |  | 
24 | CS(=O)(=O)NCc1nc(-c2ccc3[nH]c4c5c(c6c(c4c3c2)C(=O)NC6=O)CCC5)cs1 | 22 | 28 |  |  | 0.018
25 | CCCCC(=O)NCc1nc(-c2ccc3[nH]c4c5c(c6c(c4c3c2)C(=O)NC6=O)CCC5)cs1 | 15 | 34 |  |  | 
26 | CC(=O)c1ccc2[nH]c3c4c(c5c(c3c2c1)C(=O)NC5=O)CCC4 | 35 | 57 |  |  | 
27 | CC(C)(C)OC(=O)Cc1nc(-c2ccc3[nH]c4c5c(c6c(c4c3c2)C(=O)NC6=O)CCC5)cs1 | 20 | 49 |  |  | 
28 | CCCC(=O)NCc1nc(-c2ccc3[nH]c4c5c(c6c(c4c3c2)C(=O)NC6=O)CCC5)cs1 | 19 | 29 |  |  | 
29 | Nc1nc(-c2ccc3[nH]c4c5c(c6c(c4c3c2)C(=O)NC6=O)CCC5)cs1 | 48 | 100 |  |  | 
30 | N=C(N)Nc1nc(-c2ccc3[nH]c4c5c(c6c(c4c3c2)C(=O)NC6=O)CCC5)cs1 | 19 | 53 |  |  | 
31 | Br.NCc1nc(-c2ccc3[nH]c4c5c(c6c(c4c3c2)C(=O)NC6=O)CCC5)cs1 | 20 |  | 41 |  | 
